For this assay, the target named is T1, pig brain prolyl oligopeptidase (Sus scrofa, UniProt P23687).
T1 construct: The brains were homogenized with a glass-teflon homogenisator; from tissue; host or cells: pig brain (excluding cerebellum and most of the brain stem), 10000 g supernatant of the homogenate
T1 sequence (P23687 whole entry): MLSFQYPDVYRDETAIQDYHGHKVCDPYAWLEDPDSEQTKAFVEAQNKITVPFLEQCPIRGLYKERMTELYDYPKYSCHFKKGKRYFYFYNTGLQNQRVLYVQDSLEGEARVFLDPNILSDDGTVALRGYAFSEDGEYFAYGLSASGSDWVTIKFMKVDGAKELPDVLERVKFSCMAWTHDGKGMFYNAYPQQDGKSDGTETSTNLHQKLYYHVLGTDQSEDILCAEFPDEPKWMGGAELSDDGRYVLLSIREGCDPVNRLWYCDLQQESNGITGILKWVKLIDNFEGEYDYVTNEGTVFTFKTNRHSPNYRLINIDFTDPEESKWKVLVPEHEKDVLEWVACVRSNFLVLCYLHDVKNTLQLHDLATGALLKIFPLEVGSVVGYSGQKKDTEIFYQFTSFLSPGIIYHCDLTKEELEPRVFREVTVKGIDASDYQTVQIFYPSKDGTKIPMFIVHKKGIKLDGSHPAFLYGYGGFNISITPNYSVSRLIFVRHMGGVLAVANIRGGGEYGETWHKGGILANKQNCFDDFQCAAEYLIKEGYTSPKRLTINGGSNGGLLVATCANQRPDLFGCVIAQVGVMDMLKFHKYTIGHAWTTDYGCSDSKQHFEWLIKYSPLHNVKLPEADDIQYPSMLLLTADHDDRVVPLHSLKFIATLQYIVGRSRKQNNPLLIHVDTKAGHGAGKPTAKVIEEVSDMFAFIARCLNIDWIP
Nature of the assay: Inhibition of prolyl oligopeptidase activity of pig brain (Suc-Gly-Pro-AMC, fluorometric). Type of assay: biochemical. Particulars: pig brain homogenate supernatant, 30° C., pH 7.0. On the procedure: The whole pig brains, excluding cerebellum and most of the brain stem, of three pigs were placed in liquid nitrogen within 30 min from killing and stored at −80° C. until homogenized. The brains were homogenized with a glass-teflon homogenisator in 3 volumes (w/v) of ice-cold 0.1 M sodium-potassium phosphate buffer (pH 7.0) and the homogenates were centrifuged for 20 min at 4° C. at 10000 g. The supernatants were collected, pooled and stored in small aliquots at −80° C. until used. The supernatant was thawn in ice just before activity assay and diluted in a ratio 1:2 with homogenisation buffer (=enzyme preparation).
In the microplate assay procedure, 10 μl of enzyme preparation was preincubated with 460 μl of 0.1 M sodium-potassium phosphate buffer (pH 7.0) and 5 μl of a solution of novel compound dissolved in DMSO and diluted with 0.1 M sodium-potassium phosphate buffer at 30° C. for 30 min. The controls contained 10 μl enzyme preparation and 465 μl of 0.1 M sodium-potassium phosphate buffer (pH 7.0). The reaction was initiated by adding 25 μl of 4 mM Suc-Gly-Pro-AMC (AMC: 7-amido-4-methylcoumarin) dissolved in 0.1 M sodium-potassium phosphate buffer (pH 7.0), and the mixture was incubated at 30° C. for 60 min. The reaction was terminated by adding 500 μl of 1 M sodium acetate buffer (pH 4.2).
Formation of 7-amido-4-methylcoumarin was determined fluorometrically with microplate fluorescence reader (excitation at 360 nm and emission at 460 nm). The final concentration of novel compounds in the assay mixture varied from 10^−12 M to 10^−4 M.
The prolyl oligopeptidase activity was calculated with the following formula in the presence of various concentrations of novel compounds. To reveal the inhibitory potency of the novel compound, activities (% of control) were plotted against the log concentration of the compound, and the IC50 value was determined by non-linear regression utilizing GraphPad Prism software.
Activity (% of control)=a/b×100, where • a=flourescence intensity in the presence of a novel compound • […] a novel compound (control)
In turn, `O=C(CO)[C@@H]1CCCN1C(=O)[C@@H]1CCCN1C(=O)c1cccc(C(=O)N2CCC[C@H]2C(=O)N2CCCC2)c1` [Example 22, Isophthalic acid L-prolyl-2(S)-(hydroxyacetyl)pyrrolidine L-prolyl-pyrrolidine amide] came in with an IC50 of 0.4 nM.
With `O=C(C1CCCC1)[C@@H]1CCCN1C(=O)c1cccc(C(=O)N2CCC[C@H]2C(=O)C2CCCC2)c1` [Example 41, Isophthalic acid di-(2(S)-(cyclopentanecarbonyl)pyrrolidine)amide], the half-maximal inhibitory concentration (IC50) worked out at 78 nM.
To `O=C(NC(Cc1ccccc1)C(=O)N1CCCC1)c1cccc(C(=O)NC(Cc2ccccc2)C(=O)N2CCCC2)c1` [Example 50, Isophtalic acid di-(L-phenylalanyl-pyrrolidine)amide] belongs 79 nM; to `CSCC[C@H](NC(=O)c1cccc(C(=O)N[C@@H](CCSC)C(=O)N2CCCC2)c1)C(=O)N1CCCC1` [Example 47, Isophthalic acid di-(L-methionyl-pyrrolidine)amide], 110 nM.
The result for `N#C[C@@H]1CCCN1C(=O)[C@@H]1CCCN1C(=O)CCC(=O)N1CCCCCC1` [Example 18, Succinic acid hexamethyleneimine L-prolyl-2(S)-cyanopyrrolidine amide] reads 0.8 nM; that for `O=C([C@@H]1CCCN1C(=O)c1cccc(C(=O)N2CCC[C@H]2C(=O)N2CCCC2)c1)N1CCCC1` [Example 11, Isophthalic acid di-(L-prolyl-pyrrolidine)amide], 26 nM; that for `C[C@H](NC(=O)c1cccc(C(=O)N[C@@H](C)C(=O)N2CCCC2)c1)C(=O)N1CCCC1` [Example 46, Isophthalic acid di-(L-alanyl-pyrrolidine)amide], 87 nM.
To `N#C[C@@H]1CCCN1C(=O)[C@@H]1CCCN1C(=O)CCC(=O)N1CCC[C@H]1C(=O)N1CCC[C@H]1C#N` [Example 21, Succinic acid di-(L-prolyl-2(S)-cyanopyrrolidine)amide] belongs 0.8 nM.
Compound `O=C(CCCC(=O)N1CCC[C@H]1C(=O)N1CCCC1)N1CCCCCC1` [Example 48, Glutaric acid hexamethyleneimine L-prolyl-pyrrolidine amide] displayed an IC50 of 28 nM.
